This test relates to BRIN-BD11 cells. The experiment in a line: In vitro insulin secretion from BRIN-BD11 cells. The class given is cell-based. As to the method:
BRIN-BD11 cells were used to assess the insulin releasing activity of polypeptides as described by […] et al., 1996 (Diabetes. 1996 August; 45(8):1132-40). Cells were cultured in RPMI-1640 growth media supplemented with 10% (v/v) foetal bovine serum (FBS) and 1% (v/v) antibiotics (penicillin (100 U/ml), streptomycin ([…])), in 75 cm2 sterile tissue culture flasks (Greiner bio-one, UK) maintained at 37° C. and 5% CO2 in a LEEC incubator (Laboratory technical engineering, Nottingham, UK). BRIN-BD11 cells were then seeded at a density of 150,000 cells/well in 24-well plates (Nunc, Roskilde, Denmark) and allowed to attach overnight at 37° C.

On to `CC[C@H](C)[C@H](NC(=O)[C@H](CO)NC(=O)[C@H](Cc1ccc(O)cc1)NC(=O)[C@H](CC(=O)O)NC(=O)[C@H](CO)NC(=O)[C@@H](NC(=O)[C@H](Cc1ccccc1)NC(=O)[C@@H](NC(=O)CNC(=O)[C@H](CCC(=O)O)NC(=O)[C@@H](C)NC(=O)[C@@H](N)Cc1ccc(O)cc1)[C@@H](C)O)[C@@H](C)CC)C(=O)N[C@@H](C)C(=O)N[C@@H](CCSC)C(=O)N[C@@H](CC(=O)O)C(=O)N[C@@H](CCCCN)C(=O)N[C@H](C(=O)N[C@@H](Cc1c[nH]cn1)C(=O)N[C@@H](CCC(N)=O)C(=O)N[C@@H](CCC(N)=O)C(=O)N[C@@H](CC(=O)O)C(=O)N[C@@H](Cc1ccccc1)C(=O)N[C@H](C(=O)N[C@@H](CC(N)=O)C(=O)N[C@@H](Cc1c[nH]c2ccccc12)C(=O)N[C@@H](CC(C)C)C(=O)N[C@@H](CC(C)C)C(=O)N[C@@H](C)C(=O)N[C@@H](CCC(N)=O)C(=O)N[C@@H](CCCCN)C(=O)NCC(=O)N[C@@H](CCCCN)C(=O)N[C@@H](CCCCN)C(=O)N[C@@H](CC(N)=O)C(=O)N[C@@H](CC(=O)O)C(=O)N[C@@H](Cc1c[nH]c2ccccc12)C(=O)N[C@@H](CCCCN)C(=O)N[C@@H](Cc1c[nH]cn1)C(=O)N[C@@H](CC(N)=O)C(=O)N[C@H](C(=O)N[C@H](C(=O)N[C@@H](CCC(N)=O)C(=O)O)[C@@H](C)O)[C@@H](C)CC)C(C)C)[C@@H](C)CC` [(DAla2)GIP, TYR-(d)ALA-GLU-GLY-THR-PHE-ILE-SER-ASP-TYR-SER-ILE-ALA-MET-ASP-LYS-ILE-HIS-GLN-GLN-ASP-PHE-VAL-ASN-TRP-LEU-LEU-ALA-GLN-LYS-GLY-LYS-LYS-ASN-ASP-TRP-LYS-HIS-ASN-ILE-THR-GLN], for which the “Insulin secretion from BRIN-BD11 cells” value (10^−6 mol/l peptide, 20 min, vs 5.6 and 16.7 mmol/l glucose control) is “significantly (P<0.05 to P<0.001) stimulated insulin secretion”. For the same compound, the “Insulin release from BRIN-BD11 cells” value (10^−8 M peptide, vs 5.6 and 16.7 mmol/l glucose controls respectively) is “significant (P<0.001 and P<0.01; respectively) increases in insulin release”.

(Values after patent US11738065B2, “Polypeptides and analogues thereof for use in the treatment of diabetes and bone disorders” (UNIVERSITY OF ULSTER, priority 2015, dated 2023).)
